Patent US7399756B2, “Organo-phosphorous compounds for activating gamma/delta T cells” (Bioagency AG, priority 2001, dated 2008)

Test system: V gamma 9+ T-cells (gamma/delta T-cells)
Assay: Activation of gamma/delta T-cells: CD25 expression on V gamma 9+ T-cells of peripheral blood lymphocytes, flow cytometry
Format: cell-based, human
Conditions: peripheral blood lymphocytes of healthy donors, 72 hours incubation with IL-2, CD25 activation marker; IPP positive control 10 μM
Method: Lymphocytes were obtained from the peripheral blood of healthy donors by Ficoll density gradient centrifugation. For each test, 2×10^5 of the cells so obtained were seeded in a volume of 0.2 ml of RPMI-1640 medium (Life Technologies) that was enriched with 25 mM HEPES, 2 mM L-glutamine, 0.025 mg/ml of gentamicin, 100 U/ml of human interleukin-2 (IL-2) (all from Life Technologies) and 10% human AB serum (Bavarian Red Cross). The test fractions were added in various dilutions, and isopentenyl diphosphate (IPP) from Sigma was used in a final concentration of 10 μM as a positive control. Incubation was effected in the incubator with 5% CO2 at 37° C. After 72 hours the cells were harvested and analysed in a flow cytometer. In so doing, the expression of the CD25 activation marker on the surface of V gamma 9^+ T-cells was measured with the aid of the monoclonal antibodies CD25-PE (B1.49.9), V gamma 9-FITC (lmmu360) and CD3-PC5 (UCHT1) supplied by Beckman-Coulter.
Lymphocytes were obtained from the peripheral blood of healthy donors by Ficoll density gradient centrifugation. […] After 72 hours the cells were harvested and analysed in a flow cytometer. In so doing, the expression of the CD25 activation marker on the surface of V gamma 9^+ T-cells was measured with the aid of the monoclonal antibodies CD25-PE (B1.49.9), V gamma 9-FITC (Immu360) and CD3-PC5 (UCHT1) supplied by Beckman-Coulter.

| SMILES | activity relative to IPP (times more active than IPP) |
| --- | --- |
| CC(=CCCP(=O)([O-])OP(=O)([O-])[O-])CO.[Na+].[Na+].[Na+] [compound 15] | about 500 times |
| CC(=CCCP(=O)([O-])CP(=O)([O-])[O-])CO.[Na+].[Na+].[Na+] [compound 19] | about 500 times |
